Experimental data: patent publication US20250195498A1, “INHIBITOR OF CELLULAR PURINE NUCLEOTIDE SALVAGE PATHWAY ENZYME FOR USE IN THE TREATMENT AND/OR PREVENTION OF HELICOBACTER PYLORI INFECTION AND/OR DISEASE ASSOCIATED WITH SUCH INFECTION AND PHARMACEUTICAL COMPOSITION COMPRISING THE SAME” (UNIWERSYTET WARSZAWSKI, priority 2022, published 2025)
In brackets after ≈: the same amount, converted by molar mass. Several values for one entry are separate records, joined by “and”; a condition that tells them apart may be missing. Identical values can stand only once. Like-named read-outs stand apart in the source and are kept apart here. Marks after values point to notes of the source that are not given here.

What was measured:
H. pylori strain 26695 = assay: Growth curve method / MIC in liquid culture, strain 26695; type: cell-based, Helicobacter pylori; conditions: strain 26695; for inhibition of bacterial growth: concentrations up to 5 mM; for MIC: read-out: MIC
Experimental: (§1) The representative PNP inhibitor from H. pylori included in this study was immucillin A. The experiment was conducted using the growth curve method (two-fold serial dilutions in liquid medium). The tested H. pylori strains were cultured in Petri dishes with BHI solid medium supplemented with 10% FBS and 1% H. pylori Selective Supplement antibiotic kit, in anaerostats under microaerophilic conditions (5% 02, 10% CO2, 85% N2) at 37° C. for 3 days. Liquid culture of H. pylori was conducted overnight with shaking at 37° C. under microaerophilic conditions in BHI medium supplemented with 10% FBS and 1% H. pylori Selective Supplement antibiotic kit. Subsequently, for the essential experiment of determining the minimum inhibitory concentration (MIC), double strengthened liquid BHI medium was prepared, that is, supplemented with 20% FBS and a 2% set of H. pylori Selective Supplement antibiotics.
(§2) Bacterial proliferation inhibition experiments were carried out in 24-deep-well 2 ml flat-bottomed plates at a solution volume per well of 0.5 ml. In a single well, double strengthened (relative to the concentration planned for testing) solutions of the test inhibitor and double strengthened liquid BHI medium inoculated with H. pylori (10^4-10^5 CFU/ml in the final volume in the well, corresponding to the optical density of the culture OD600=0.05) were mixed together in a 1:1 ratio.
(§3) Kanamycin at a concentration of 25 μg/ml (Irie et al., 1997) was used as a positive control, while Mili-Q deionized water and BHI medium not inoculated with bacteria were used as negative controls. Plates were shaken at 37° C., under microaerophilic conditions. […] After 24 hours, the OD600 of samples containing the negative control, i.e. with Mili-Q deionized water, was about 1.2-1.4, corresponding to a bacterial concentration of about […].
(§4) In addition, the method proposed by Knezevic et al. (2018) was used to check whether the observed OD600 was from live bacterial cells. For this purpose, an equal volume of Christensen's double strength urea broth (that is, containing twice the concentration of all components) was added to the wells after incubation, and the plates were additionally incubated for 4 hours in an oxygen atmosphere at 37° C. During incubation, in wells with urease produced by live bacteria, urea is converted to ammonia and carbon dioxide, changing the pH of the solution and thus the colour of the phenol red indicator contained in the medium (from orange to purple).
(§5) All experiments were performed in triplicate.
The experiments were carried out using the growth curve method as described in Example 3, and the results obtained for two of the compounds tested are shown in FIG. 5. As the water solubility of the compounds tested, with the exception of 2,6-diCl-Pu, is relatively poor, two experiments were carried out: the first with the maximum concentration possible under the experimental conditions in aqueous solution with a small admixture of DMSO, and the second with higher concentrations that led to partial precipitation of the compound.
The antibacterial activity of two compounds, mefloquine (in the form of hydrochloride) and quinine, described in the literature as potent in vitro inhibitors of the PNP enzyme from Plasmodium falciparum (Dziekan et al., 2019), was tested. Using a two-fold serial dilution method in liquid medium (as described in Example 3), the MIC values for mefloquine and quinine were determined against clinical H. pylori strains resistant to MTZ, CLR and MTZ+CLR (M26, M91, M92 and M93), as well as the reference H. pylori strain 26695. Four clinical H. pylori strains isolated from adults, from primary infections (the subjects had never previously been treated against H. pylori infection) were tested. These strains come from the collection of the Department of Microbiology of the Medical University of Wroclaw and were obtained due to collaboration with Prof. Grażyna Gościniak, MD, PhD. […]

H. pylori strain N6 = assay: Growth curve method / MIC, strain N6; type: cell-based, Helicobacter pylori; conditions: strain N6; concentrations up to 5 mM
Experimental: as §1, §2, §3, §4, §5
(§6) Inhibition by PLP and its metabolic precursors of the growth of H. pylori strains: 26695, N6 and P12 in culture was investigated using the growth curve method as described in Example 3. From these experiments, the minimum inhibitory concentration was determined as the lowest concentration of a compound that inhibits the visible growth of the bacteria, compared to growth in control samples without the tested compounds. All experiments were carried out in triplicate.

H. pylori strain P12 = assay: Growth curve method / MIC, strain P12; type: cell-based, Helicobacter pylori; conditions: strain P12; concentrations up to 5 mM
Experimental: as §1, §2, §3, §4, §5, §6

[1] = tested on: H. pylori strain M26 (MTZ + CLR resistant); assay: Growth curve method / MIC, resistant strain M26; type: cell-based, Helicobacter pylori; conditions: for MIC: strain M26, MTZ + CLR resistant
Experimental: as §1, §2, §3, §4, §5
(§7) The antibacterial activity of two compounds, mefloquine (in the form of hydrochloride) and quinine, described in the literature as potent in vitro inhibitors of the PNP enzyme from Plasmodium falciparum (Dziekan et al., 2019), was tested. Using a two-fold serial dilution method in liquid medium (as described in Example 3), the MIC values for mefloquine and quinine were determined against clinical H. pylori strains resistant to MTZ, CLR and MTZ+CLR (M26, M91, M92 and M93), as well as the reference H. pylori strain 26695. Four clinical H. pylori strains isolated from adults, from primary infections (the subjects had never previously been treated against H. pylori infection) were tested. These strains come from the collection of the Department of Microbiology of the Medical University of Wroclaw and were obtained due to collaboration with Prof. Grażyna Gościniak, MD, PhD. The tested compounds belong to organic substances and are soluble in DMSO. The maximum tested concentration of quinine in H. pylori culture was 0.56 mM, and that of mefloquine was 2.25 mM. […] On each occasion, the effect of DMSO alone on the growth of the H. pylori strains tested was also checked. […] Kanamycin was used as a positive control and Mili-Q deionised water as a negative control. All experiments were carried out in triplicate. […]

[2] = tested on: H. pylori strain M91 (MTZ + CLR resistant); assay: Growth curve method / MIC, resistant strain M91; type: cell-based, Helicobacter pylori; conditions: for MIC: strain M91, MTZ + CLR resistant
Experimental: as §1, §2, §3, §4, §5, §7

[3] = tested on: H. pylori strain M92 (CLR resistant); assay: Growth curve method / MIC, resistant strain M92; type: cell-based, Helicobacter pylori; conditions: for MIC: strain M92, CLR resistant
Experimental: as §1, §2, §3, §4, §5, §7

[4] = tested on: H. pylori strain M93 (MTZ resistant); assay: Growth curve method / MIC, resistant strain M93; type: cell-based, Helicobacter pylori; conditions: for MIC: strain M93, MTZ resistant
Experimental: as §1, §2, §3, §4, §5, §7

[5] = molecular target: T1, AdSS from H. pylori strain 26695 (Helicobacter pylori, UniProt P56137); assay: AdSS enzyme activity assay (adenylosuccinate formation, 280 nm); type: biochemical
T1 construct: made in house; host or cells: E. coli BL21 (DE3)
T1 sequence (P56137 1-411): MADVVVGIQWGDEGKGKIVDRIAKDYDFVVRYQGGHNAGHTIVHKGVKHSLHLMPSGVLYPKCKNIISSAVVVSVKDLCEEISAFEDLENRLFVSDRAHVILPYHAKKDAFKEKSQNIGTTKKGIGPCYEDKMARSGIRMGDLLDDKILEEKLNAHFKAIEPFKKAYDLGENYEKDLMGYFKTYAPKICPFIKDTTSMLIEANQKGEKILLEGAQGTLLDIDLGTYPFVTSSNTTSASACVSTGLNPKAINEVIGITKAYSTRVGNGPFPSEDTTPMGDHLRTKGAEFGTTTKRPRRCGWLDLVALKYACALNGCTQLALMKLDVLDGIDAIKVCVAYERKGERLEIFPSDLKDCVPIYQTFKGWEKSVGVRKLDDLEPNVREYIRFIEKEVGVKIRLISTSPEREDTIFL
Experimental: Enzymatic activity measurements were carried out in the similar manner as described in Bubić et al. (2018), at 25° C., in cuvettes with an optical path length of 1 cm containing 1 ml of reaction mixture consisting of 20 mM Hepes/NaOH buffer pH 7.7, 1 mM MgSO4 and the substrates, GTP, IMP and Asp. Saturating concentrations of substrates, namely GTP: 0.06 mM, IMP: 0.15 mM and Asp: 5 mM, were used to measure specific activity. The extinction coefficient at 280 nm of 1.17×10^4 M^−1 cm^−1 (adenylosuccinate formation) was used to calculate the concentration of the product formed (Rudolph and Fromm 1969). One unit (U) of AdSS specific activity is defined as μmol of adenylosuccinate produced per minute at 25° C. Specific activity is expressed as units of enzymatic activity per mg of protein (U/mg).
Inhibition of AdSS by PLP was examined first at saturation with all enzyme substrates and with increasing concentrations of the PLP inhibitor.
To determine the extent to which PLP-induced inactivation develops over time, the enzyme at low concentration (0.022 μM) was incubated at 25° C. in Hepes/NaOH buffer pH 7.0, in the presence of 1.11 mM MgSO4, 5.55 mM Asp, 167 μM IMP and PLP at various concentrations (ranging between 0.03 μM and 8.1 μM). The mixture contained all components necessary for the reaction with the exception of GTP, which, according to Dong and Fromm (1990), competes with PLP. Aliquots of 900 μl were taken from the incubated mixture at specified time intervals, placed in a cuvette and 100 μl of 0.6 mM GTP solution was added to initiate the reaction. The enzyme activity was determined and analysed in the known manner as described above.
Exponential decays were fitted to the data obtained for each concentration and the reaction rate constant of the inactivation process, k, and the residual enzymatic activity observed when the system reached equilibrium, A∞, were obtained as fitting parameters. From these parameters, the half-life of the inactivation process activity, t1/2, was calculated. The dependence of these three parameters on PLP concentration is shown in the lower panel of FIG. 12.
The inhibition of AdSS from H. pylori by pyridoxal (PI-h) was studied at saturation with all enzyme substrates and with increasing concentrations of the inhibitor, similar to that for PLP in Example 10a).

H. pylori = conditions: 2021, cited from earlier work; for MIC (literature): MTZ according to EUCAST, kanamycin according to Irie et al., 1997
[6] = Helicobacter pylori, read-out: MIC
[7] = listed as Mefloquine (hydrochloride)
[8] = listed as Mefloquine (hydrochloride), read-out: MIC

In the case of `Cc1ncc(CO)c(CO)c1O` [pyridoxine], the “inhibition of bacterial growth” value (H. pylori strain 26695) is reported as “no inhibition of bacterial growth”, the “inhibition of bacterial growth” value (H. pylori strain N6) is reported as “no inhibition of bacterial growth” and the “inhibition of bacterial growth” value (H. pylori strain P12) is reported as “no inhibition of bacterial growth”.

With `Cc1ncc(CO)c(CN)c1O.Cl.Cl` [pyridoxamine dihydrochloride] the “inhibition of bacterial growth” value (H. pylori strain 26695) was “no inhibition of bacterial growth”, the “inhibition of bacterial growth” value (H. pylori strain N6) was “no inhibition of bacterial growth” and the “inhibition of bacterial growth” value (H. pylori strain P12) was “no inhibition of bacterial growth”.

With `C=C[C@H]1C[N@@]2CC[C@H]1C[C@H]2[C@H](O)c1ccnc2ccc(OC)cc12` [quinine] the inhibition at 400 µM (H. pylori strain 26695; Helicobacter pylori, quinine 0.4 mM, read-out: percentage of growth inhibition) was 91%, the MIC (H. pylori strain 26695; Helicobacter pylori) was ≥ 400 µM and ≥ 130 µg/mL and the MIC [1, 6] was ≥ 400 µM and ≥ 130 µg/mL. The inhibition at 400 µM ([1]; Helicobacter pylori, strain M26, quinine 0.4 mM, read-out: percentage of growth inhibition) was 87%, the MIC [1] was ≥0.4 mM and (≥130 μg/ml) and the MIC [2, 6] was ≥ 560 µM and ≥ 182 µg/mL. The inhibition at 400 µM ([2]; Helicobacter pylori, strain M91, quinine 0.4 mM, read-out: percentage of growth inhibition) was 78%, the inhibition at 560 µM ([2]; Helicobacter pylori, strain M91, quinine 0.56 mM (highest tested), read-out: percentage of growth inhibition) was 86% and the MIC [2] was ≥0.56 mM and (≥182 μg/ml). The MIC [3, 6] was ≥ 400 µM and ≥ 130 µg/mL, the inhibition at 400 µM ([3]; Helicobacter pylori, strain M92, quinine 0.4 mM, read-out: percentage of growth inhibition) was 76% and the MIC [3] was ≥0.4 mM and (≥130 μg/ml). For the same molecule, the MIC [4, 6] was ≥ 400 µM and ≥ 130 µg/mL, the inhibition at 400 µM ([4]; Helicobacter pylori, strain M93, quinine 0.4 mM, read-out: percentage of growth inhibition) was 91% and the MIC [4] was ≥0.4 mM and (≥130 μg/ml).

For `OC(c1cc(C(F)(F)F)nc2c(C(F)(F)F)cccc12)C1CCCCN1` (stereo not drawn) [mefloquine], the MIC (H. pylori strain 26695; Helicobacter pylori) was 50 µM and 21 µg/mL, the MIC [1, 6] was 35 µM and 14.5 µg/mL and the MIC [1, 7] was “(14.5 μg/ml)”. For the same molecule, the MIC [1, 8] was 35 µM, the MIC [2, 6] was 50 µM and 21 µg/mL and the MIC [2, 7] was “(21 μg/ml)”. The MIC [2, 8] was 50 µM, the MIC [3, 6] was 40 µM and 17 µg/mL and the MIC [3, 7] was “(17 μg/ml)”. The MIC [3, 8] was 40 µM (≈ 15.1 µg/mL), the MIC [4, 6] was 35 µM and 14.5 µg/mL and the MIC [4, 7] was “(14.5 μg/ml)”. For the same molecule, the MIC [4, 8] was 35 µM (≈ 13.2 µg/mL).

In the case of `O=CN(O)CC(=O)O` [hadacidin], the “inhibition of AdSS from H. pylori” value [5] is listed as “strongly inhibits” and the “inhibition of proliferation of H. pylori” value (H. pylori; Wojtyś et al.) is listed as “does not inhibit the proliferation of bacteria”.

In the case of `Cc1ncc([N+](=O)[O-])n1CCO` [Metronidazole, metronidazole], the inhibition at 12 µM (H. pylori strain 26695; Helicobacter pylori, metronidazole 12 μM (2 μg/ml), not maximum solubility, read-out: % inhibition of H. pylori cell cultures) is listed as 89 to 92%, the “MIC (literature)” value (H. pylori) is listed as 8 ^f μg/ml and 47 μM and the “MIC (literature)” value (H. pylori; listed as MTZ) is listed as 47 μM and 8 μg/ml.
